# According to patent publication US10239851B2 (priority 2014, dated 2019):
# Read-outs that look alike come from different tables or passages of the source.
# Legend:
# [1] = tested on: human prostate cancer PC-3; details: for Tumor volume (mm^3) (D0): D0 (baseline at grouping);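 for all read-outs here: PC-3 tumors were established by implanting the cells under the skin of nude mice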
# Description: Test of the inhibitory activity of the water soluble cabazitaxel derivatives on subcutaneously xenografted tumor of human prostate cancer PC-3 in nude mice: evaluating and comparing the inhibitory activity of the water soluble cabazitaxel derivatives and cabazitaxel on subcutaneously xenografted tumor of human prostate cancer PC-3 in nude mice.
# Human prostate cancer PC-3 cells were subcutaneously inoculated into nude mice. After the tumor volume reached 100-150 mm^3, the animals were randomly divided into several groups, and administered with the water soluble cabazitaxel derivatives of the present invention and cabazitaxel, respectively once on the same day (D0). The tumor volume was measured 2-3 times per week, the animals were weighed and the data were recorded until day 20 (D20) after grouping.
# The tumor volume (V) was calculated according to the equation: V=½×a×b^2, wherein a and b represent the length and the width, respectively.
# T/C (%)=(T−T0)/(C−C0)×100, wherein T and C represent the tumor volume at the end of the experiment; and T0 and C0 represent the tumor volume at the beginning of the experiment.
# [2] = In vitro dissociation of the water soluble taxane derivatives in blood plasma of rat; format: in vitro ADME, SD rats; details: 37° C.
# Protocol: The obtained water soluble taxane derivatives were formulated as 0.2 mg/ml aqueous solutions. […] After 2 min, 5 min and 10 min of incubation, 0.2 ml of solutions were respectively taken from each of the samples, and added to acetonitrile (0.4 ml) cooled to −20° C. for precipitation of protein.
# [3] = In vitro dissociation of the water soluble taxane derivatives in blood plasma of rabbit; format: in vitro ADME, New Zealand white rabbits; details: 37° C.
# Protocol: The obtained water soluble taxane derivatives were formulated as 0.2 mg/ml aqueous solutions. […] After 5 min, 20 min and 60 min of incubation, 0.2 ml of solutions were respectively taken from each of the samples, and added to acetonitrile (0.4 ml) cooled to −20° C. for precipitation of protein.
# [4] = rabbit plasma, 37° C.
# Protocol: (§1) 0.1 ml samples were taken from each of the solutions, added respectively to 1 ml of blood plasma of rabbit (taken from New Zealand white rabbits, treated according to conventional methods, anticoagulated with heparin) or 1 ml of blood plasma of rat (taken from live SD rats, treated according to conventional methods, anticoagulated with heparin), homogeneously mixed, and placed in a thermostatic water bath at 37° C. for incubation with time being recorded. Samples were taken at different time points after the experiment began, and 2 ml of acetonitrile was immediately added. The samples were shaken and centrifuged for 5 min (15,000 rpm), and the supernatant was then taken for HPLC analysis.
# [5] = rat plasma, 37° C.
# Protocol: as §1
# [6] = PC-3 xenograft, nude mice, 13 mg/kg, D0 IV, single dose
# [7] = PC-3 xenograft, nude mice, 13 mg/kg, D0 IV, single dose, D6
# [8] = PC-3 xenograft, nude mice, 7 mg/kg, D0 IV, single dose
# [9] = formula G derivatives, sampling time 15 s
# [10] = formula G derivatives, sampling time 30 s
compound,measurement,setting,value
"CCN(C)CC[C@@H](F)C(=O)O[C@@H](C(=O)O[C@H]1C[C@@]2(O)[C@@H](OC(=O)c3ccccc3)[C@@H]3[C@]4(OC(C)=O)CO[C@@H]4C[C@H](OC)[C@@]3(C)C(=O)[C@H](OC)C(=C1C)C2(C)C)[C@@H](NC(=O)OC(C)(C)C)c1ccccc1.O=C(O)/C=C\C(=O)O [Compound 30, 2′-O-[4-(N-methyl-N-ethyl)amino-2(R)-fluorobutyryl]cabazitaxel maleate]",T/C (%) D20,[1]; [6],−56%
"CO[C@H]1C(=O)[C@]2(C)[C@@H](OC)C[C@H]3OC[C@@]3(OC(C)=O)[C@H]2[C@H](OC(=O)c2ccccc2)[C@]2(O)C[C@H](OC(=O)[C@H](OC(=O)[C@H](F)CCN(C)C)[C@@H](NC(=O)OC(C)(C)C)c3ccccc3)C(C)=C1C2(C)C.CS(=O)(=O)O [Compound C7, 2′-O-[4-(N,N-dimethyl)amino-2(R)-fluorobutyryl]cabazitaxel methanesulfonate]",dissociation percent,[2]; 2 min,49.7%
same,dissociation percent,[2]; 5 min,88.9%
same,dissociation percent,[2]; 10 min,100%
same,dissociation percent,[3]; 5 min,78.4%
same,dissociation percent,[3]; 20 min,94.8%
same,dissociation percent,[3]; 60 min,100%
same,T/C (%) D20,[1]; [6],−67%
"CO[C@H]1C(=O)[C@]2(C)[C@@H](OC)C[C@H]3OC[C@@]3(OC(C)=O)[C@H]2[C@H](OC(=O)c2ccccc2)[C@]2(O)C[C@H](OC(=O)[C@H](OC(=O)[C@H](F)CCN(C)C(C)C)[C@@H](NC(=O)OC(C)(C)C)c3ccccc3)C(C)=C1C2(C)C.Cl [Compound 32, 2′-O-[4-(N-methyl-N-isopropyl)amino-2(R)-fluorobutyryl]cabazitaxel hydrochloride]",T/C (%) D20,[1]; [6],−45%
"CO[C@H]1C(=O)[C@]2(C)[C@@H](OC)C[C@H]3OC[C@@]3(OC(C)=O)[C@H]2[C@H](OC(=O)c2ccccc2)[C@]2(O)C[C@H](OC(=O)[C@H](OC(=O)[C@@H](CCN(C)C)C(F)(F)F)[C@@H](NC(=O)OC(C)(C)C)c3ccccc3)C(C)=C1C2(C)C.CS(=O)(=O)O [Compound 33, 2′-O-[4-(N,N-dimethyl)amino-2(R)-2-trifluoromethylbutyryl]cabazitaxel methanesulfonate]",T/C (%) D20,[1]; [6],−46%
"CCN(CC)CC[C@@H](F)C(=O)O[C@@H](C(=O)O[C@H]1C[C@@]2(O)[C@@H](OC(=O)c3ccccc3)[C@@H]3[C@]4(OC(C)=O)CO[C@@H]4C[C@H](OC)[C@@]3(C)C(=O)[C@H](OC)C(=C1C)C2(C)C)[C@@H](NC(=O)OC(C)(C)C)c1ccccc1.CS(=O)(=O)O [Compound 31, 2′-O-[4-(N,N-diethyl)amino-2(R)-fluorobutyryl]cabazitaxel methanesulfonate]",T/C (%) D20,[1]; [6],−50%
"CO[C@H]1C(=O)[C@]2(C)[C@@H](OC)C[C@H]3OC[C@@]3(OC(C)=O)[C@H]2[C@H](OC(=O)c2ccccc2)[C@]2(O)C[C@H](OC(=O)[C@H](OC(=O)[C@@H](CCN(C)C)C(F)F)[C@@H](NC(=O)OC(C)(C)C)c3ccccc3)C(C)=C1C2(C)C.Cc1ccc(S(=O)(=O)O)cc1 [Compound 34, 2′-O-[4-(N,N-dimethyl)amino-2(R)-2-difluoromethylbutyryl] cabazitaxel p-toluene sulfonate]",Tumor volume (mm^3) (D0),[1]; [6],116.7 ± 3.9 mm^3
same,Weight change (%) D6,[1]; [7],−16.1%
same,T/C (%) D20,[1]; [6],−37%
same,Tumor inhibitory percent (%) D20,[1]; [6],85%
same,Tumor volume (mm^3) (D20),[1]; [6],48.4 ± 14.7 mm^3
"CO[C@H]1C(=O)[C@]2(C)[C@@H](OC)C[C@H]3OC[C@@]3(OC(C)=O)[C@H]2[C@H](OC(=O)c2ccccc2)[C@]2(O)C[C@H](OC(=O)[C@H](O)[C@@H](NC(=O)OC(C)(C)C)c3ccccc3)C(C)=C1C2(C)C [cabazitaxel, reference compound]",Tumor volume (mm^3) (D0),[1]; [8],111.7 ± 1.8 mm^3
same,T/C (%) D20,[1]; [8],−27%
same,Tumor inhibitory percent (%) D20,[1]; [8],127%
same,Tumor volume (mm^3) (D20),[1]; [8],79.9 ± 24.8 mm^3
same,Weight change (%) D6,"[1]; mouse, in vivo, iv, 7 mg/kg",−13.8%
"CO[C@H]1C(=O)[C@]2(C)[C@@H](OC)C[C@H]3OC[C@@]3(OC(C)=O)[C@H]2[C@H](OC(=O)c2ccccc2)[C@]2(O)C[C@H](OC(=O)[C@H](OC(=O)[C@@H](F)CCN(C)C)[C@@H](NC(=O)OC(C)(C)C)c3ccccc3)C(C)=C1C2(C)C.CS(=O)(=O)O [Compound C8, 2′-O-[4-(N,N-dimethyl)amino-2(S)-fluorobutyryl]cabazitaxel methanesulfonate]",dissociation percent,[2]; 2 min,49.4%
same,dissociation percent,[2]; 5 min,88.4%
same,dissociation percent,[2]; 10 min,100%
same,dissociation percent,[3]; 5 min,85.6%
same,dissociation percent,[3]; 20 min,94.5%
same,dissociation percent,[3]; 60 min,100%
same,T/C (%) D20,[1]; [6],−66%
"CC(C)c1cccc(C(C)C)c1OC(=O)[C@H](F)CCN1CCCC1.Cl [Compound E8, propofol 4-(pyrrolidin-1-yl)-2(R)-2-fluorobutyrate hydrochloride]",dissociation percent,[4]; 15 s,91.1%
same,dissociation percent,[4]; 30 s,98.2%
same,dissociation percent,[5]; 5 s,95.6%
"CC(C)c1cccc(C(C)C)c1OC(=O)C(F)CCOP(=O)([O-])[O-].[K+].[K+] (racemic) [Compound G1, {1-[4-(2,6-diisopropylphenoxy)-4-oxo-3-(R,S)-3-fluoro-1-butyl]} phosphate monoester dipotassium salt]",Sampling time/dissociation percent (%) 15 S,[4]; [9],43.7%
same,Sampling time/dissociation percent (%) 30 S,[4]; [10],68.7%
same,Sampling time/dissociation percent (%) 5 S,"[5]; formula G derivatives, sampling time 5 s",54.1%
same,Sampling time/dissociation percent (%) 15 S,[5]; [9],67.4%
same,Sampling time/dissociation percent (%) 30 S,[5]; [10],86.9%
"CO[C@H]1C(=O)[C@]2(C)[C@@H](OC)C[C@H]3OC[C@@]3(OC(C)=O)[C@H]2[C@H](OC(=O)c2ccccc2)[C@]2(O)C[C@H](OC(=O)[C@H](OC(=O)[C@H](F)CCCN(C)C)[C@@H](NC(=O)OC(C)(C)C)c3ccccc3)C(C)=C1C2(C)C.Cl [Compound 35, 2′-O-[5-(N,N-dimethyl)amino-2(R)-fluorovaleryl]cabazitaxel hydrochloride]",Tumor volume (mm^3) (D0),[1]; [6],112.9 ± 4.4 mm^3
same,Weight change (%) D6,[1]; [7],−16.6%
same,T/C (%) D20,[1]; [6],−28%
same,Tumor inhibitory percent (%) D20,[1]; [6],64%
same,Tumor volume (mm^3) (D20),[1]; [6],55.3 ± 13.8 mm^3
"CC(C)c1cccc(C(C)C)c1OC(=O)C(F)CCC(=O)[O-].[K+] [Compound F2, propofol 4-carboxyl-2(S)-fluorovalerate potassium salt]",Sampling time/dissociation percent (%) 15 s,"[4]; formula F derivatives, sampling time 15 s",73.4%
same,Sampling time/dissociation percent (%) 30 s,"[4]; formula F derivatives, sampling time 30 s",94.8%
same,Sampling time/dissociation percent (%) 5 s,"[5]; formula F derivatives, sampling time 5 s",92.3%
"CO[C@H]1C(=O)[C@]2(C)[C@@H](OC)C[C@H]3OC[C@@]3(OC(C)=O)[C@H]2[C@H](OC(=O)c2ccccc2)[C@]2(O)C[C@H](OC(=O)[C@H](OC(=O)[C@H](F)CCCCN(C)C)[C@@H](NC(=O)OC(C)(C)C)c3ccccc3)C(C)=C1C2(C)C.O=S(=O)(O)O [Compound 36, 2′-O-[6-(N,N-dimethyl)amino-2(R)-fluorohexanoyl]cabazitaxel sulfate]",Tumor volume (mm^3) (D0),[1]; [6],111.9 ± 3.7 mm^3
same,Weight change (%) D6,[1]; [7],−16.8%
same,T/C (%) D20,[1]; [6],−20%
same,Tumor inhibitory percent (%) D20,[1]; [6],46%
same,Tumor volume (mm^3) (D20),[1]; [6],66.8 ± 12.4 mm^3
